Key:
[1] = test system: velvetleaf; assay: Test A preemergence; type: in vivo, Abutilon theophrasti; details: Preemergence, 1000 g ai/ha; 0 to 100 scale, 0 no effect, 100 complete control
Excerpt: (§1) Seeds of plant species selected from barnyardgrass (Echinochloa crus-galli), kochia (Kochia scoparia), common ragweed (Ambrosia elation), Italian ryegrass (Lolium multiflorum), crabgrass, large (large crabgrass, Digitaria sanguinalis), foxtail, giant (giant foxtail, Setaria faberii), morningglory (Ipomoea spp.), pigweed (redroot pigweed, Amaranthus retroflexus), velvetleaf (Abutilon theophrasti), wheat (Triticum aestivum), and corn (Zea mays) were planted into a blend of loam soil and sand and treated preemergence with a directed soil spray using test chemicals formulated in a non-phytotoxic solvent mixture which included a surfactant.
(§2) At the same time, plants selected from these crop and weed species and also blackgrass (Alopecurus myosuroides), and galium (catchweed bedstraw, Galium aparine) were planted in pots containing the same blend of loam soil and sand and treated with postemergence applications of test chemicals formulated in the same manner. Plants ranged in height from 2 to 10 cm and were in the one- to two-leaf stage for the postemergence treatment. Treated plants and untreated controls were maintained in a greenhouse for approximately 10 days, after which time all treated plants were compared to untreated controls and visually evaluated for injury. Plant response ratings, summarized in Table A, are based on a 0 to 100 scale where 0 is no effect and 100 is complete control. A dash (-) response means no test result.

[2] = test system: crabgrass, large; assay: Test A postemergence; type: in vivo, Digitaria sanguinalis; details: Postemergence, 1000 g ai/ha; visual rating after approx. 10 days, 0 to 100 scale (0 no effect, 100 complete control)
Excerpt: as §1, §2

[3] = test system: morningglory; assay: Test A postemergence; type: in vivo, Ipomoea spp.; details: Postemergence, 1000 g ai/ha; visual rating after approx. 10 days, 0 to 100 scale (0 no effect, 100 complete control)
Outline: (§3)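 Scoring was visual, on a scale where 100 means complete control and 0 means no effect, comparing treated with untreated plants around 10 days post-application. Compounds in surfactant-containing non-phytotoxic solvent were sprayed onto soil preemergence or onto one- to two-leaf seedlings (2–10 cm) postemergence.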

[4] = test system: wheat; assay: Test A preemergence; type: in vivo, Triticum aestivum
Excerpt: as §1, §2

[5] = test system: morningglory; assay: Test A preemergence; type: in vivo, Ipomoea spp.; details: Preemergence, 1000 g ai/ha; 0 to 100 scale, 0 no effect, 100 complete control
Outline: as §3

[6] = test system: crabgrass, large; assay: Test A preemergence; type: in vivo, Digitaria sanguinalis; details: Preemergence, 1000 g ai/ha; 0 to 100 scale, 0 no effect, 100 complete control
Outline: as §3

[7] = test system: pigweed; assay: Test A preemergence; type: in vivo, Amaranthus retroflexus; details: Preemergence, 1000 g ai/ha; 0 to 100 scale, 0 no effect, 100 complete control
Excerpt: as §1, §2

[8] = test system: corn; assay: Test A preemergence; type: in vivo, Zea mays; details: Preemergence, 1000 g ai/ha; 0 to 100 scale, 0 no effect, 100 complete control
Excerpt: as §1, §2

[9] = test system: velvetleaf; assay: Test A postemergence; type: in vivo, Abutilon theophrasti; details: Postemergence, 1000 g ai/ha; visual rating after approx. 10 days, 0 to 100 scale (0 no effect, 100 complete control)
Excerpt: as §1, §2

[10] = test system: pigweed; assay: Test A postemergence; type: in vivo, Amaranthus retroflexus; details: Postemergence, 1000 g ai/ha; visual rating after approx. 10 days, 0 to 100 scale (0 no effect, 100 complete control)
Excerpt: as §1, §2

[11] = test system: foxtail, giant; assay: Test A preemergence; type: in vivo, Setaria faberii; details: Preemergence, 1000 g ai/ha; 0 to 100 scale, 0 no effect, 100 complete control
Excerpt: as §1, §2

[12] = test system: barnyardgrass; assay: Test A postemergence; type: in vivo, Echinochloa crus-galli; details: Postemergence, 1000 g ai/ha; visual rating after approx. 10 days, 0 to 100 scale (0 no effect, 100 complete control)
Outline: as §3

[13] = test system: corn; assay: Test A postemergence; type: in vivo, Zea mays; details: Postemergence, 1000 g ai/ha; visual rating after approx. 10 days, 0 to 100 scale (0 no effect, 100 complete control)
Outline: as §3

[14] = test system: barnyardgrass; assay: Test A preemergence; type: in vivo, Echinochloa crus-galli; details: Preemergence, 1000 g ai/ha; 0 to 100 scale, 0 no effect, 100 complete control
Outline: as §3

[15] = test system: foxtail, giant; assay: Test A postemergence; type: in vivo, Setaria faberii; details: Postemergence, 1000 g ai/ha; visual rating after approx. 10 days, 0 to 100 scale (0 no effect, 100 complete control)
Excerpt: as §1, §2

[16] = test system: wheat; assay: Test A postemergence; type: in vivo, Triticum aestivum; details: Postemergence, 1000 g ai/ha; visual rating after approx. 10 days, 0 to 100 scale (0 no effect, 100 complete control)
Excerpt: as §1, §2

[17] = Preemergence, 1000 g ai/ha, 0 to 100 scale, 0 no effect, 100 complete control

| SMILES | Velvetleaf plant response rating [1] | Crabgrass, Large plant response rating [2] | Morningglory plant response rating [3] | Wheat plant response rating [4, 17] | Morningglory plant response rating [5] | Crabgrass, Large plant response rating [6] | Pigweed plant response rating [7] | Corn plant response rating [8] | Velvetleaf plant response rating [9] | Pigweed plant response rating [10] | Foxtail, Giant plant response rating [11] | Barnyardgrass plant response rating [12] | Corn plant response rating [13] | Barnyardgrass plant response rating [14] | Foxtail, Giant plant response rating [15] | Wheat plant response rating [16] | Wheat plant response rating ([4]; preemergence, 500 g ai/ha, visual injury after approx. 10 days, 0 to 100 scale (0 no effect, 100 complete control)) |
| --- | --- | --- | --- | --- | --- | --- | --- | --- | --- | --- | --- | --- | --- | --- | --- | --- | --- |
| C#CCNC(=O)c1cc(CC)n(Cc2cccc(C(F)(F)F)c2)n1 [Compound 41] | 0 | 20 | 100 | 0 | 20 | 30 | 10 | 0 | 10 | 30 | 50 | 10 | 20 | 10 | 20 | 10 | – |
| CCc1cc(C(=O)N(C)CC)nn1Cc1cccc(C(F)(F)F)c1 [Compound 42] | 0 | 50 | 60 | 0 | 30 | 40 | 10 | 0 | 40 | 60 | 30 | 20 | 30 | 0 | 30 | 0 | – |
| CCc1cc(C(=O)NC(C)C)nn1Cc1cccc(C(F)(F)F)c1 [Compound 47] | 60 | 70 | 100 | 50 | 90 | 100 | 80 | 40 | 60 | 70 | 100 | 60 | 40 | 80 | 80 | 40 | – |
| CCc1cc(C(=O)NC(C)(C)C)nn1Cc1cccc(C(F)(F)F)c1 [Compound 50] | 0 | 10 | 10 | 0 | 0 | 10 | 0 | 0 | 10 | 30 | 30 | 10 | 20 | 10 | 30 | 0 | – |
| C#CCNC(=O)c1cc(CC)n(Cc2cccc(OC(F)(F)F)c2)n1 [Compound 54] | 0 | 10 | 70 | 0 | 0 | 40 | 90 | 0 | 60 | 70 | 20 | 10 | 20 | 10 | 10 | 10 | – |
| C=CCNC(=O)c1cc(CC)n(Cc2cccc(OC(F)(F)F)c2)n1 [Compound 58] | 0 | 30 | 50 | 0 | 20 | 70 | 70 | 0 | 50 | 60 | 20 | 20 | 20 | 10 | 20 | 0 | 0 |

— US20150105252A1, “SUBSTITUTED PYRAZOLES AS HERBICIDES” (E I DU PONT DE NEMOURS AND COMPANY, priority 2013, published 2015)
